Data published in PubChem BioAssay AID652187 (Sanford-Burnham Center for Chemical Genomics, 2013).
The source made the active and inactive calls.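 The calls were made as follows: active = IC50 of 25 µM or lower, counted as toxic to worms; inactive = the rest.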

Tested on: C. elegans VP596 worms, composite health score, 20-22 h
Experiment: C. elegans worm health toxicity scoring, SAR follow-up, cytotoxicity control for SKN-1 inhibitor project, whole organism, strain VP596, composite health score, round 1 (AID 652187)

CCOc1cc(CNC2CCCCC2)cc(Cl)c1OCc1ccc(F)cc1
IC50: > 64 µM (inactive)

c1ccc(-c2csc(-c3ccncc3)n2)cc1
IC50: > 64 µM (inactive)

Cc1ccc(-c2csc(-c3cccnc3)n2)cc1
IC50: 61.1 µM (inactive)

CCOc1cc(CNC2CC2)cc(Cl)c1OCc1ccc(F)cc1
IC50: > 64 µM (inactive)

COc1ccc(-c2csc(-c3ccncc3)n2)cc1
IC50: > 64 µM (inactive)

Fc1ccc(-c2csc(-c3ccncc3)n2)cc1
IC50: > 64 µM (inactive)

CCOc1cc(CNC2CCCC2)cc(Cl)c1OCc1ccc(Cl)cc1
IC50: > 64 µM (inactive)

CCOc1cc(C(=O)NC2CCCC2)cc(Cl)c1OCc1ccc(F)cc1
IC50: > 64 µM (inactive)

CCOc1cc(CNC2CCCC2)cc(Cl)c1OCc1ccc(OC)cc1
IC50: > 64 µM (inactive)

CCOc1cc(CNC2CCC2)cc(Cl)c1OCc1ccc(F)cc1
IC50: > 64 µM (inactive)

Fc1ccc(COc2ccc(CNC3CCCC3)cc2Cl)cc1
IC50: > 64 µM (inactive)

Fc1ccc(-c2csc(-c3cccnc3)n2)cc1
IC50: > 64 µM (inactive)

CCOc1cc(CNC2CCCC2)cc(Cl)c1OC
IC50: > 64 µM (inactive)

CCOc1cc(CNC2CCCC2)cc(Cl)c1OCc1ccccc1F
IC50: > 64 µM (inactive)

COc1ccc(-c2csc(-c3cccnc3)n2)cc1
IC50: > 64 µM (inactive)

CCOc1cc(CNC2CCCC2)ccc1OCc1ccc(F)cc1
IC50: > 64 µM (inactive)

Clc1ccc(-c2csc(-c3ccncc3)n2)cc1
IC50: < 64 µM (inactive)

COc1cc(CNC2CCCC2)cc(Cl)c1OCc1ccc(F)cc1
IC50: > 64 µM (inactive)

CCOc1cc(CNC2CCCC2)cc(Cl)c1OCc1ccc(C)cc1
IC50: > 64 µM (inactive)

CCOc1cc(CNc2ccccc2)cc(Cl)c1OCc1ccc(F)cc1
IC50: > 64 µM (inactive)

CCOc1cc(CNC(C)C)cc(Cl)c1OCc1ccc(F)cc1
IC50: > 64 µM (inactive)

Clc1ccc(-c2csc(-c3cccnc3)n2)cc1
IC50: > 64 µM (inactive)

CCOc1cc(CNC2CCCC2)cc(Cl)c1OCc1ccccc1Cl
IC50: > 64 µM (inactive)

CCOc1cc(CNCc2ccccc2)cc(Cl)c1OCc1ccc(F)cc1
IC50: > 64 µM (inactive)

c1ccc(-c2csc(-c3cccnc3)n2)cc1
IC50: 63.3 µM (inactive)

Cc1ccc(-c2csc(-c3ccncc3)n2)cc1
IC50: > 64 µM (inactive)

CCOc1cc(CNC2CCCC2)cc(Cl)c1OCc1cccc(F)c1
IC50: > 64 µM (inactive)

CCOc1cc(CNC2CCCC2)cc(Cl)c1OCc1ccc(F)cc1
IC50: > 64 µM (inactive)
